The subject of data set [1] is HepG2. Description: Antiinvasive activity against human HepG2 cells by matrigel-based transwell assay. It is filed as functional, cell-based.
Another data set has as its system SMMC-7721. Description: Antiinvasive activity against human SMMC7721 cells by matrigel-based transwell assay. It is filed as functional, cell-based.
In the next data set the test system is MHCC97H. Kind of data set: Antiinvasive activity against human MHCC97H cells by matrigel-based transwell assay. It is filed as functional, cell-based.
The next data set concerns RAW264.7. Kind of data set: Inhibition of LPS-induced nitric oxide production in mouse RAW264.7 cells measured after 20 hrs by Griess assay. To be noted: RAW264.7, 20 h. It counts as functional, cell-based.
A further data set has as its system T47D. Description: Cytotoxicity against human T47D cells assessed as inhibition of cell proliferation after 24 hrs by WST1 assay. It counts as functional, cell-based.
For a further data set, the system named is SW-620. Description: Cytotoxicity against human SW620 cells assessed as inhibition of cell proliferation after 24 hrs by WST1 assay. It counts as functional, cell-based. Particulars: SW-620, 24 h.
Data set [2] concerns HepG2. Description: Cytotoxicity against human HepG2 cells assessed as inhibition of cell proliferation after 24 hrs by WST1 assay. It counts as functional, cell-based. To be noted: HepG2, 24 h.
A further data set deals with U-937. Kind of data set: Cytotoxicity against human U937 cells after 3 days by WST1 assay. It is filed as functional, cell-based. To be noted: U-937, 72 h.
The subject of another data set is HeLa. Kind of data set: Cytotoxicity against human HeLa cells after 3 days by WST1 assay. To be noted: 72 h. It counts as functional, cell-based.
The next data set relates to Trichophyton rubrum. Description: Antimicrobial activity against Trichophyton rubrum after 7 days by microdilution method. It counts as functional. To be noted: 168 h.
For data set [3], the species on record is Mus musculus. Kind of data set: Sedative effect in Swiss mouse assessed as reduction in motility at plasma concentration of 27 nM. Also on record: scale not given: the % may be the effect or the level left. It counts as functional.
A further data set relates to Escherichia coli. Kind of data set: Antibacterial activity against Escherichia coli CMCC 44102 after 24 hrs by broth dilution method. It counts as functional.
A further data set deals with Gardnerella vaginalis. Description: Antimicrobial activity against Gardnerella vaginalis. It is filed as functional.
The test system of a further data set is Candida albicans. Description: Antimicrobial activity against Candida albicans. It counts as functional.
The species named for data set [4] is Mus musculus. Description: Sedative effect in Swiss mouse assessed as reduction in motility at 34 nM. Details: scale not given: the % may be the effect or the level left. It is filed as functional.
The test system of a further data set is U373 MG. Description: Cytoprotective activity against H2O2-induced cell death in human U373MG cells assessed as increase in cell viability preincubated for 24 hrs followed by H2O2-stimulation and measured after 30 mins by MTT assay. It is filed as functional, cell-based, U-373MG ATCC.
Data set [5] is filed under the species Mus musculus. Kind of data set: Sedative effect in Swiss mouse assessed as reduction in motility. Also on record: scale not given: the % may be the effect or the level left. It is filed as functional.
A further data set relates to HT-29. Kind of data set: Cytotoxicity against human HT-29 cells assessed as reduction in cell viability after 24 hrs by MTT assay. It counts as functional, cell-based. Particulars: HT-29, 24 h.
In data set [6] the target is T1, Cannabinoid receptor 2 (Homo sapiens, UniProt P34972). Description: Displacement of [3H]CP55940 from human CB2 expressed in CHOK1 cell membranes after 2 hrs by liquid scintillation counting method.
Data set [7] concerns the target T1, Cannabinoid receptor 2. Kind of data set: Agonist activity at recombinant human Cb2 receptor expressed in CHOK1 cells assessed as inhibition of forskolin-stimulated cAMP levels measured up to 30 mins by luminescence assay. It is filed as functional, cell-based.
The nature of data set [8]: Antitumor activity against human HubCCA1 cells xenografted in BALB/c nude mouse assessed as reduction in tumor size at 100 mg/kg, po administered once daily for 30 days measured every 3 consecutive days during compound dosing. It is filed as functional. Details: scale not given: the % may be the effect or the level left.
Data set [9] can be described thus: Antitumor activity against human HubCCA1 cells xenografted in BALB/c nude mouse assessed as reduction in lung metastasis at 100 mg/kg, po administered once daily for 30 days measured post last dose by haematoxylin-eosin staining based assay. It is filed as functional. Also on record: scale not given: the % may be the effect or the level left.
Data set [10] in a line: Antitumor activity against human HubCCA1 cells xenografted in BALB/c nude mouse assessed as mouse survival at 100 mg/kg, po administered once daily for 30 days. It counts as functional.
In data set [11] the target is T2, Transient receptor potential cation channel subfamily A member 1 (Homo sapiens, UniProt O75762). Description: Agonist activity at human TRPA1.
The test system of another data set is Rattus norvegicus. Kind of data set: Antiischemic stroke activity in iv dosed Sprague-Dawley rat middle cerebral artery occlusion-induced ischemia-reperfusion injury model assessed as decrease in infarct size by TTC staining based assay. It is filed as functional.
Data set [12] concerns the target T2, Transient receptor potential cation channel subfamily A member 1. Kind of data set: Antagonist activity at TRPA1 (unknown origin) expressed in Xenopus laevis oocytes assessed as inhibition of mustard oil-induced currents by two-electrode voltage clamp method. It counts as cell-based.
Data set [13] can be described thus: Toxicity in po dosed albino Wistar rat. It is filed as organism-based. Particulars: in vivo.
A further data set has as its system Leukemia cell. Description: Cytotoxicity against ALL/AML patient derived primary leukemia cells after 24 hrs by LDH release assay. It is filed as functional, cell-based. To be noted: Homo sapiens.
Data set [14] concerns the target Neuronal acetylcholine receptor subunit alpha-7 (Homo sapiens, UniProt P36544). Kind of data set: Antagonist activity at human alpha7 nACHR expressed in Xenopus laevis oocytes assessed as inhibition of acetylcholine-induced currents at -70 mV holding potential by electrophysiology. It counts as cell-based.
Data set [15] in a line: Inhibition of IL1beta-induced nitric oxide production in human primary chondrocytes preincubated for 30 mins followed by IL1beta-stimulation and measured after 24 hrs by Griess assay. It is filed as functional, cell-based.
The nature of data set [16]: Dermal toxicity in rabbit. It counts as organism-based, Oryctolagus cuniculus. To be noted: in vivo, topical or ocular.
A short description of data set [17]: Toxicity in po dosed rat. To be noted: in vivo. It is filed as organism-based.
The nature of data set [18]: Toxicity in po dosed mouse. It is filed as organism-based. To be noted: in vivo.
The next data set has as its system HL-60. Kind of data set: Cytotoxicity against human HL60 cells assessed as reduction in cell viability after 24 hrs by MTT assay. It is filed as functional, cell-based. To be noted: HL-60, 24 h.
A further data set deals with Duodenum. Description: Myorelaxant activity in California White rabbit duodenum assessed as relaxation of high-potassium-induced contraction. It is filed as functional, tissue-based. Particulars: Oryctolagus cuniculus.
The subject of the next data set is Coccidioides posadasii. Description: Antifungal activity against Coccidioides posadasii filamentous phase after 48 hrs by broth microdilution method. It is filed as functional.
In data set [19] the test system is Histoplasma capsulatum. Description: Antifungal activity against Histoplasma capsulatum filamentous phase after 7 days by broth microdilution method. It is filed as functional. Particulars: 168 h.
Data set [20] has as its system Histoplasma capsulatum. Description: Antifungal activity against Histoplasma capsulatum yeast phase after 4 days by broth microdilution method. Particulars: 96 h. It counts as functional.

Values after ≈ are worked out from the molar mass of the structure shown.

We go through 14 compounds from ChEMBL document CHEMBL4411259, “Medicinal properties of terpenes found in Cannabis sativa and Humulus lupulus” (Eur J Med Chem, 2018).

T1 sequence (P34972 whole entry): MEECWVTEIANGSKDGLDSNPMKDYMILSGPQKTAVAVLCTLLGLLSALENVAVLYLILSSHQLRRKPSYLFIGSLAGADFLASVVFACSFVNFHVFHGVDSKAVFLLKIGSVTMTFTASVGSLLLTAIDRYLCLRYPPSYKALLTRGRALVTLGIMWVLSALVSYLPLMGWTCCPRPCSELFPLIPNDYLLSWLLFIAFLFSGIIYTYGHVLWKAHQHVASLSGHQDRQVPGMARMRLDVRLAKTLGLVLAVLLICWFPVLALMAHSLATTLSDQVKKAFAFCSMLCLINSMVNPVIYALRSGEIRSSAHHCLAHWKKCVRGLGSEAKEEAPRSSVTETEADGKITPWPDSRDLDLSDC
T2 sequence (O75762 whole entry, the tested form may be a part): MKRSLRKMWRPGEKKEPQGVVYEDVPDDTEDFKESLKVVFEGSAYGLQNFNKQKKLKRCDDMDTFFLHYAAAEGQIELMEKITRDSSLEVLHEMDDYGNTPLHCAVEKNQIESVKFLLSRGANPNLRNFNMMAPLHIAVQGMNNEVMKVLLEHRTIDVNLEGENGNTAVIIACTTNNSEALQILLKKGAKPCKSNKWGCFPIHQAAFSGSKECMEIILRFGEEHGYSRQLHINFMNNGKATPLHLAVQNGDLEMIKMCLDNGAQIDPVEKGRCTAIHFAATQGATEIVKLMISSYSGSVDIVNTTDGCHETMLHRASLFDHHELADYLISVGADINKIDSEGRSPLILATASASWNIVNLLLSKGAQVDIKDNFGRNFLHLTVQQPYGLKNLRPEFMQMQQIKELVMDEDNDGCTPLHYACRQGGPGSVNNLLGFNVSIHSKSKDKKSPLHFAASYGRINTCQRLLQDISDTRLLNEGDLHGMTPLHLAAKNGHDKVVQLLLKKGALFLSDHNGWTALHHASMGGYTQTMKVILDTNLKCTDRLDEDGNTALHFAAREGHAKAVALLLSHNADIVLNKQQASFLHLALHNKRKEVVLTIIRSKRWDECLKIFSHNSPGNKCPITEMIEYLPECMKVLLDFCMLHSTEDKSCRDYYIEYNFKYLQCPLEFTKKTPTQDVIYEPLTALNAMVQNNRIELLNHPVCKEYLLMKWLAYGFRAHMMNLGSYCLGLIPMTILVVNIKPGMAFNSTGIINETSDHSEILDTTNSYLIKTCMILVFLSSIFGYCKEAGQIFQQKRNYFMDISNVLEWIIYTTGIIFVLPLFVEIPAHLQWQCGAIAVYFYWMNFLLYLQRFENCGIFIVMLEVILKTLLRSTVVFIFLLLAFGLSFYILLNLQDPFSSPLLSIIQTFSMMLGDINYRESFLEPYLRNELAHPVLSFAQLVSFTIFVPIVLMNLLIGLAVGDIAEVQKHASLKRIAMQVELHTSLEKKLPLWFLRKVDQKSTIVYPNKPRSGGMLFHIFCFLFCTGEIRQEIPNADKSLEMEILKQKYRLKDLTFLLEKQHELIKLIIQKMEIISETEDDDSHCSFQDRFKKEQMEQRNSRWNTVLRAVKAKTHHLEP
Neuronal acetylcholine receptor subunit alpha-7, sequence (P36544 whole entry): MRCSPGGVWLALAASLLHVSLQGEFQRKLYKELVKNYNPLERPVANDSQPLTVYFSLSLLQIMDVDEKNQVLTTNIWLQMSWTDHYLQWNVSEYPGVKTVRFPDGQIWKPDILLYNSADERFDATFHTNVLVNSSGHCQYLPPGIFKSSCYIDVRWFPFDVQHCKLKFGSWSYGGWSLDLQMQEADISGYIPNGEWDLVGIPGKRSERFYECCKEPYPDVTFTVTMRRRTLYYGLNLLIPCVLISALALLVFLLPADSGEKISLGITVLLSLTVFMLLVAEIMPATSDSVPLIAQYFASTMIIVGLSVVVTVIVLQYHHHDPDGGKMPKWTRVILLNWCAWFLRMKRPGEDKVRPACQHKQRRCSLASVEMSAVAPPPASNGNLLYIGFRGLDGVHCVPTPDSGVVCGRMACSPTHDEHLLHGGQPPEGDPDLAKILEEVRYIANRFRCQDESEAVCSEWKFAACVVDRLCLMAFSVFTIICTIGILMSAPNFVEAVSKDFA

For `C=C(C)[C@H]1CC=C(CO)CC1`, the half-maximal inhibitory concentration (IC50) with HepG2 [1], in the data set with SMMC-7721 and in the data set with MHCC97H was 100 µM each time.
In the data set on RAW264.7, `C/C1=C\CC(C)(C)/C=C/C(=O)/C(C)=C/C(O)C1` (stereo not drawn) came in with an IC50 of 14.1 µM.
In the case of `C=C[C@@](C)(O)CCC=C(C)C`, the half-maximal inhibitory concentration (IC50) was determined as 224 µM with T47D; 222 µM in the data set with SW-620; 290 µM in the data set on HepG2 [2]; 3 µM in the data set with U-937; 11 µM in the data set with HeLa. The MIC with Trichophyton rubrum came to 260 µg/mL (≈ 1690 µM). For the same compound, in the data set filed under Mus musculus [3], the Activity came to 73%.
As to `CC1=CCC(C(C)(C)O)CC1` (stereo not drawn), the MIC in the data set on Escherichia coli is reported as 0.78 uL/ml; against Gardnerella vaginalis, 0.06 %v/v; in the data set on Candida albicans, 0.125 %v/v. The Activity in the data set filed under Mus musculus [4] is 45%.
For `CC1=CC[C@@H]2C[C@H]1C2(C)C` [1R-(+)-ALPHA-PINENE], the IC50 with U373 MG amounted to 80 µM. Further, the Activity in the data set listed under Mus musculus [5] amounted to 14%.
Take `C/C1=C\CC/C(C)=C/CC(C)(C)/C=C/C1` [ALPHA-HUMULONE]: in the data set on HT-29, the IC50 is 54 µM.
The compound `C=C1CC/C=C(\C)CC[C@@H]2[C@@H]1CC2(C)C` [BETA-CARYOPHYLLENE] returned a Ki on Cannabinoid receptor 2 [6] of 0.15 µM. At Cannabinoid receptor 2 [7], the EC50 turned out to be 1.9 µM.
With `C=C1CCC[C@]2(C)CC[C@@H](C(C)(C)O)C[C@@H]12` [BETA-EUDESMOL], the Activity in data set [8] stood at 92%; in data set [9] it was 95%; in [10] it was 64%. For the same compound, the EC50 in data set [11] worked out at 33 µM.
With `CC1(C)C2CCC1(C)C(O)C2` (stereo not drawn) [BORNEOL], the ED50 in the data set on Rattus norvegicus turned out to be 0.36 mg/kg. The IC50 in data set [12] worked out at 300 µM.
Compound `CC(C)=CCC/C(C)=C/CO` [GERANIOL] registered an LD50 in [13] of 3600 mg/kg.
Consider `CC(C)=CCC[C@](C)(O)[C@@H]1CC=C(C)CC1` [LEVOMENOL], for which the values for the IC50 (in the data set on Leukemia cell; in data set [14]) were 14 µM and 3.1 µM, respectively.
In data set [15], `C=CC(=C)CCC=C(C)C` [MYRCENE] yielded an IC50 of 37.3 µg/mL (≈ 274 µM).
As to `C=CC(C)(O)CC/C=C(\C)CCC=C(C)C` (stereo not drawn) [NEROLIDOL], the LD50 in [16] was above 2000 mg/kg; in [17] it was 5000 mg/kg; in [18], 10000 mg/kg.
On to `CC1=CCC(O)(C(C)C)CC1` (stereo not drawn) [TERPINEOL], for which the IC50 in the data set on HL-60 came to 30 µM; with Duodenum, 170 µM. Moreover, the MIC was determined as 250 µg/mL (≈ 1620 µM) against Coccidioides posadasii, 30 µg/mL (≈ 194 µM) in the data set with Histoplasma capsulatum [19] and 10 µg/mL (≈ 64.8 µM) with Histoplasma capsulatum [20].
